In patent US5220064A, “Substituted 4'-hydroxyphenylacetic acid derivatives having antiinflammatory and analgesic activity” (Warner-Lambert Company, priority 1989, dated 1993) one finds ED50 data, which are given here for 3 compounds.

The assay has as its system mice. In words: acetic acid-induced stretching/writhing test in mice (based on Koster et al.). As to conditions: Mus musculus, sc; subcutaneous, 30 minutes before peritoneal acetic acid (100 mg/kg); mice fasted 24 hours; 15 minute observation; read-out: ED50 (amount producing the desired inhibition of stretching or "writhing" in 50 percent of a population). Format: in vivo. The text has this: Illustrative examples of the activity for use as described above for the novel compounds of the present invention are shown as the compound of the noted examples described in the following material when administered in a test based on that of Koster et al. [Fed. Proc., Vol. 18 (1959), p. 412] in which the peritoneal injection of acetic acid to mice provokes repeated stretching and twisting movements which persist for more than six hours. Analgesics prevent or suppress these syndromes which are considered to be an exteriorization of a diffuse abdominal pain. A 1% solution of acetic acid in water is used at a dose of 0.01 ml/g or 100 mg/kg of acetic acid to release the syndrome.
The compound to be tested is subcutaneously administered 30 minutes before the acetic acid injection and the mice are fasted 24 hours before the start of the test. The stretching for the mice is observed and totaled for each mouse in a 15 minute observation period starting just after the acetic acid injection. The results are expressed as mg/kg which amount produces the desired inhibition of stretching or "writhing" in 50 percent of a population.
For orientation: ED50 means the dose that gives a 50% effect, or the effect in half of the subjects. `CCCCCCCCNC(=O)Cc1ccc(O)c(Cl)c1` [Example 1, Benzeneacetamide, 3-Chloro-4-hydroxy-N-octyl-]: the ED50 turned out to be 6.1 mg/kg.
On to `CCCCCCCCNC(=O)Cc1ccc(O)c(F)c1` [Example 3, Benzeneacetamide, 3-Fluoro-4-hydroxy-N-octyl-], for which the ED50 was determined as 3.2 mg/kg.
For the compound `CCCCCCCCNC(=O)Cc1ccc(O)c(Br)c1` [Example 2, Benzeneacetamide, 3-Bromo-4-hydroxy-N-octyl-], the ED50 came to 2.5 mg/kg.
